Columns and labels:
Assay type in all cases: cell-based
16HBe14o- cells [1] = test: human sputum elastase (HSE) induced hole formation and loss of TER in 16HBe14o- monolayers
Protocol: (§1) 16HBe14o- cells were grown on transwell clear membranes until they formed an electrically tight monolayer. In the absence of serum, the cells were treated for 24 hours with FP or vehicle. 5 μg/ml human sputum elastase (HSE) or 5 μg/ml Pseudomonas Aeruginosa elastase (PAE) was then added to the basolateral surface of the cells. The transepithelial resistance (TER) and the morphology of the monolayers were monitored over the next 24 hours.
(§2) When HSE was added to the basal surface of the both the 16HBE14o- and primary bronchial epithelial cells it caused a lowering of TER and formation of holes in the cell monolayers. […] When the cells were treated with PAE, the monolayer detached from the underlying membrane as a complete sheet. It took 4 hours for all of the control cultures treated with PAE to become detached whereas it took 8 hours for all of the FP pretreated cultures to become detached.

[2] = system: human primary bronchial epithelial cells; test: human sputum elastase (HSE) induced hole formation and loss of TER in primary bronchial epithelial cells
Protocol: as §1, §2

16HBe14o- cells [3] = test: Pseudomonas aeruginosa elastase (PAE) induced detachment and loss of TER of 16HBe14o- monolayers
Protocol: as §1, §2

16HBE epithelial cells = test: mechanical wounding of confluent 16HBE epithelial cultures, wound area; conditions: 16HBE cultures, various steroid concentrations for 24 h or 48 h before wounding (FIG. 7), versus control cultures
Protocol: To study the effect of FP on protection from mechanical damage, multiple concentric wounds were generated in multiwell plates, thus achieving a large total wound length for analysis. 10^4 cells in 0.2 ml of growth medium containing 5% steroid-free FCS were added to wells in 96 well plates and cultured until confluent with regular changes of growth medium. Cultures were incubated for a further 24 h or 48 h before wounding. After wounding, cultures were rinsed in PBS, fixed at room temperature in methanol/acetone (50/50), air dried and then stained with 0.1% crystal violet. Wound areas were determined using a Leica Q550IW image analysis system. […] The steroid effects were obvious at 24 h, but even more marked at 48 h. At the latter time point, control wound size had increased, whilst the highest dose of either steroid had reduced wound size, compared to wounds after 24 h exposure. […] In the control cultures, tearing of the epithelium from the dish surface beyond the area of direct contact with the needle occurs producing a wound width that is much greater than the needle width. In contrast, in steroid treated cultures, wounds become progressively smaller with increasing steroid concentration until the damage area is limited to the epithelium that has had direct contact with the needle.

CCC(=O)O[C@]1(C(=O)SCF)[C@H](C)C[C@H]2[C@@H]3C[C@H](F)C4=CC(=O)C=C[C@]4(C)[C@@]3(F)[C@@H](O)C[C@@]21C [FP, S-fluoromethyl 6α, 9β-difluoro-11β-hydroxy-16α-methyl-17α-propionyloxy-3-oxoandrosta-1,4-diene-17β-carbothiate]
rate of hole formation in cell monolayer (16HBe14o- cells [1]; 16HBE14o- cells, 24 h FP pretreatment, 5 μg/ml HSE basolateral, monitored over 24 hours): reduction in the rate of hole formation
loss of TER induced by HSE (16HBe14o- cells [1]; 16HBe14o- cells, after 24 hour incubation with HSE (FIG. 2)): protective effect
loss of TER induced by human sputum elastase ([2]; primary bronchial epithelial cells (FIG. 3)): protective effect
rate of hole formation in cell monolayer ([2]; primary bronchial epithelial cells, FP pretreatment, HSE added to basal surface): reduction in the rate of hole formation
loss of TER induced by pseudomonas elastase (16HBe14o- cells [3]; 16HBe14o- cells (FIG. 5)): protective effect
time for all cultures to become detached from the underlying membrane (16HBe14o- cells [3]; 16HBe14o- cells, 24 h FP pretreatment, 5 μg/ml PAE basolateral, control cultures 4 hours): 8 h
wound size (wound area) (16HBE epithelial cells): dose-related decrease in wound size

— patent publication US20040132700A1, “Use of fluticasone propionate in the treatment of diseases ameliorated by enhancement of epithelial madrix adhesion such as asthma cystic fibrosis and influenza” (priority 2001, published 2004)
